From ChEMBL document CHEMBL5465560, “Selectivity Literature for EUbOPEN Chemogenomic Library” (2024)

Assays:
[1] = biological target: Histone-lysine N-methyltransferase, H3 lysine-36 specific (Homo sapiens) (UniProt Q96L73); assay: Selectivity interaction (Methyltransferase screen (radiometric assays, panel of 8 PRMTs, 21 protein lysine methyltransferases, 3 DNA methyltransferases, and one RNA methyltransferase)) EUB0000272b NSD1; conditions: at 1 µM
[2] = biological target: Insulin receptor (Homo sapiens, UniProt P06213); assay: Selectivity interaction (Kinase panel (literature)) EUB0001199aCl INSR; conditions: at 1 µM
[3] = biological target: T1, cAMP-dependent protein kinase catalytic subunit PRKX (Homo sapiens) (UniProt P51817); assay: Selectivity interaction (Upstate Kinase Profiler service (Millipore)) EUB0000056c PRKX; conditions: at 1 µM
T1 sequence (whole entry): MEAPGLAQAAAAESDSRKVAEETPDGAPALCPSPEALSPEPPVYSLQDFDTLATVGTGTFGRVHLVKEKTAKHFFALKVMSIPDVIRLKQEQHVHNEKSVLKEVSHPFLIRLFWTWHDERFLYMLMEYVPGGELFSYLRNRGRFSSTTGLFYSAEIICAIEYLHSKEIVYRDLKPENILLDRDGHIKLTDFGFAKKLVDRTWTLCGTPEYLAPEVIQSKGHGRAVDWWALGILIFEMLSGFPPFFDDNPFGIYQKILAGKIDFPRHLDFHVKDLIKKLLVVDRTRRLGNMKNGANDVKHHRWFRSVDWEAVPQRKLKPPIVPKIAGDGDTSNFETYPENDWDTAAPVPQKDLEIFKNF

[4] = biological target: T2, Serine/threonine-protein kinase greatwall (Homo sapiens) (UniProt Q96GX5); assay: Selectivity interaction (ActivX KiNativ screen (kinase selectivity in THP-1 cell lysates)) EUB0000639a MASTL; assay type: subcellular; conditions: lysate, at 0.2 µM
T2 sequence (whole entry): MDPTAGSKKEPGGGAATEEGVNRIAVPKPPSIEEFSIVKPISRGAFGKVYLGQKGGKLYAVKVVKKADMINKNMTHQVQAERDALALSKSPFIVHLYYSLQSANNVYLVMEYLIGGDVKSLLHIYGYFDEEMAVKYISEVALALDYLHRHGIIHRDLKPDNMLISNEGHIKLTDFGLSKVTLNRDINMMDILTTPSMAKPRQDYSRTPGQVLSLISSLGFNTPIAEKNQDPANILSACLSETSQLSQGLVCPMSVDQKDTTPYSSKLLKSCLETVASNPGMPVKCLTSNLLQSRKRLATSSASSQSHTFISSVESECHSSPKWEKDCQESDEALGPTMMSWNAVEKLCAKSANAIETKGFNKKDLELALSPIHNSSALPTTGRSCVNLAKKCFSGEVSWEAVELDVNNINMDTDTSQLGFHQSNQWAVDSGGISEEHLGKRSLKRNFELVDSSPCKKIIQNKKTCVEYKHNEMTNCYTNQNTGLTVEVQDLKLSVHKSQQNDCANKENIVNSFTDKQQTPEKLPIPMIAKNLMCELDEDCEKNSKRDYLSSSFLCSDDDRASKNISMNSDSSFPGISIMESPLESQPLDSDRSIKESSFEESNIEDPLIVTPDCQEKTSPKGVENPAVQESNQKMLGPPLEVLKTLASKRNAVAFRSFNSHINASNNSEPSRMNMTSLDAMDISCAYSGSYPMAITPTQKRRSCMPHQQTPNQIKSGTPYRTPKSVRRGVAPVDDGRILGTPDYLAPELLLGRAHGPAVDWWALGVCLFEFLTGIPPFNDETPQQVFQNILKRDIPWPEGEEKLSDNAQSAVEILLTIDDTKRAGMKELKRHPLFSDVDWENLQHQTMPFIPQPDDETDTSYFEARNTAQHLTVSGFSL

[5] = biological target: T3, Serine/threonine-protein kinase Sgk2 (Homo sapiens) (UniProt Q9HBY8); assay: Selectivity interaction (Kinase panel (Invitrogen)) EUB0000639a SGK2; conditions: at 200 nM
T3 sequence (whole entry): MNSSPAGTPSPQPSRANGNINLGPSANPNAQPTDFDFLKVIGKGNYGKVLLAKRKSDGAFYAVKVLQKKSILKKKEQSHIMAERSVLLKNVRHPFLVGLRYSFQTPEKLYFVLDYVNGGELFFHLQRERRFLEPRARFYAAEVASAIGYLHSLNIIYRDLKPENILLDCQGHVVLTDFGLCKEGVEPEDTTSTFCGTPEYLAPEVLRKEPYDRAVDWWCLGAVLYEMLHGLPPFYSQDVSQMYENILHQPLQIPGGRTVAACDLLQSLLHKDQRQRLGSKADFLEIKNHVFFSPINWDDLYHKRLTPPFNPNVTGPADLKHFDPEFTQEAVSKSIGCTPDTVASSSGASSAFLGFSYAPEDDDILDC

[6] = biological target: Vascular endothelial growth factor receptor 2 (Homo sapiens, UniProt P35968); assay: Selectivity interaction (KinomeScan (DiscoverX)) EUB0000595a KDR; conditions: at 10 µM
[7] = Selectivity interaction (KinomeScan (DiscoverX)) EUB0000595a PKNB; conditions: at 10 µM
[8] = test system: eIF-2-alpha kinase GCN2 (Homo sapiens), Q9P2K8 [S808G]; assay: Selectivity interaction (KinomeScan (DiscoverX)) EUB0001049a EIF2AK4; conditions: at 1 µM
[9] = biological target: Nuclear body protein SP140-like protein (Homo sapiens) (UniProt Q9H930); assay: Selectivity interaction (Bromodomain panel (DSF asssay)) EUB0000270b SP140L
[10] = biological target: Ribosomal protein S6 kinase alpha-1 (Homo sapiens, UniProt Q15418); assay: Selectivity interaction (KinomeScan (DiscoverX)) EUB0000229b RPS6KA1; conditions: at 10 µM
[11] = biological target: High affinity nerve growth factor receptor (Homo sapiens, UniProt P04629); assay: Selectivity interaction (KinomeScan (DiscoverX)) EUB0000229b NTRK1; conditions: at 10 µM
Sequence of High affinity nerve growth factor receptor (P04629 33-796 limits assumed): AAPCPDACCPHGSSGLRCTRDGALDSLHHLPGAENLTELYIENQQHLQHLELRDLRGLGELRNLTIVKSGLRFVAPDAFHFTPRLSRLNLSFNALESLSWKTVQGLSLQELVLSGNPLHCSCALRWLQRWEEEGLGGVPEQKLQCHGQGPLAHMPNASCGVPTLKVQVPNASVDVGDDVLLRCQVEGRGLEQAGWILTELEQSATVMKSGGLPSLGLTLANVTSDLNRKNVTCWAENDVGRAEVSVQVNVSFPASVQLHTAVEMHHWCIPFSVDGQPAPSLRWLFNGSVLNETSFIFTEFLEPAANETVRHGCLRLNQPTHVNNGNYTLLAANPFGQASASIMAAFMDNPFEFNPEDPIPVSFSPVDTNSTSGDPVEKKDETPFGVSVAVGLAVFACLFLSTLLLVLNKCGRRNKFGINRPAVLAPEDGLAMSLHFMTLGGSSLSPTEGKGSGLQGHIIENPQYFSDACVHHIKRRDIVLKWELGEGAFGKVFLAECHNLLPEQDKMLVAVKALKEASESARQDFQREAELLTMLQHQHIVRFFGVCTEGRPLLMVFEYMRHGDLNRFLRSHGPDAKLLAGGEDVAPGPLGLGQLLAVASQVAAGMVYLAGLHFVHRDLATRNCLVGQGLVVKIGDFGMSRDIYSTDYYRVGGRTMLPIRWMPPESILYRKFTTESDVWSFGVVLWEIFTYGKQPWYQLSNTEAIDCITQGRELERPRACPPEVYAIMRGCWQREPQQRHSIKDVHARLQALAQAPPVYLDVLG

Sequence of eIF-2-alpha kinase GCN2 (Homo sapiens), Q9P2K8 [S808G] (Q9P2K8 whole entry S808G): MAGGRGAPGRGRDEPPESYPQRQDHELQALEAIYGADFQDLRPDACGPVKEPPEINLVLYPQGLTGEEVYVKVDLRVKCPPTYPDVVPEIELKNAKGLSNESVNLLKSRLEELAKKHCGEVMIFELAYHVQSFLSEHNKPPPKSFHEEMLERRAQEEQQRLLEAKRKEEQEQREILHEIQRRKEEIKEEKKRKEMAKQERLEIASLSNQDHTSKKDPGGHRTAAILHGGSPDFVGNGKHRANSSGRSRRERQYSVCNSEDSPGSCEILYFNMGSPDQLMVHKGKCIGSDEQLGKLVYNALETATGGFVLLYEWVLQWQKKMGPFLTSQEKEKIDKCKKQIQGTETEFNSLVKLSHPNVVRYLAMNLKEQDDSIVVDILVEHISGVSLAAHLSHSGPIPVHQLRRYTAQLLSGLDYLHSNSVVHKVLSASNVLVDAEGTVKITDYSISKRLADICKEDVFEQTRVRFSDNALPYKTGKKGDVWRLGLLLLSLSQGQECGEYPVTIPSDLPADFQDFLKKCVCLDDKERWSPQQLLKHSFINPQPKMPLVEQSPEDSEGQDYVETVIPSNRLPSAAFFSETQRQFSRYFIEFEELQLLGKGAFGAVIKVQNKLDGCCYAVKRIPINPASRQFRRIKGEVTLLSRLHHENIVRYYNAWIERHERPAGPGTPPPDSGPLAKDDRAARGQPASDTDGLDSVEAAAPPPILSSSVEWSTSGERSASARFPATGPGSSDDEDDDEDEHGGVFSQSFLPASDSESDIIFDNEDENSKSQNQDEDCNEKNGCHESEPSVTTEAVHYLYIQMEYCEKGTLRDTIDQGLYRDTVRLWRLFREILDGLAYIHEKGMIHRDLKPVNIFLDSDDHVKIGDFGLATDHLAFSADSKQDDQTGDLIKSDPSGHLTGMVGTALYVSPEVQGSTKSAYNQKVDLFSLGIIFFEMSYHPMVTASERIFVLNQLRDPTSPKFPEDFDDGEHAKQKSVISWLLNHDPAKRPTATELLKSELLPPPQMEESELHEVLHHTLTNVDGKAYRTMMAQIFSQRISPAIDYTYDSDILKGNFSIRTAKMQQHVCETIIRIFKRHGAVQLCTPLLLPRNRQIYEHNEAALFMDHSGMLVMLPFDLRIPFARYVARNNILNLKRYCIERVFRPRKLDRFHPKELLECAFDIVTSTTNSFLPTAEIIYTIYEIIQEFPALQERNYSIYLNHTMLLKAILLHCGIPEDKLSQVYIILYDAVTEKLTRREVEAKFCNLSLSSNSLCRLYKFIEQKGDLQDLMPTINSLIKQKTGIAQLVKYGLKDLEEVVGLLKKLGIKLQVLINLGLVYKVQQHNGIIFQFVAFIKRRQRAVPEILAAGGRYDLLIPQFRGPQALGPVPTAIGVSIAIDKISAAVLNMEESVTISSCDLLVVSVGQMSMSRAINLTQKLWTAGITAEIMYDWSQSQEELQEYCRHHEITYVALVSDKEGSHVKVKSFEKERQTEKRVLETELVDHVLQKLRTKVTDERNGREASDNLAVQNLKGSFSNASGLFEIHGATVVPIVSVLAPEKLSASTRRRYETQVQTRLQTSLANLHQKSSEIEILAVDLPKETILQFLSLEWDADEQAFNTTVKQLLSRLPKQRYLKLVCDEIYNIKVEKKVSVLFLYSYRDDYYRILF
Sequence of Histone-lysine N-methyltransferase, H3 lysine-36 specific (Homo sapiens) (Q96L73 whole entry): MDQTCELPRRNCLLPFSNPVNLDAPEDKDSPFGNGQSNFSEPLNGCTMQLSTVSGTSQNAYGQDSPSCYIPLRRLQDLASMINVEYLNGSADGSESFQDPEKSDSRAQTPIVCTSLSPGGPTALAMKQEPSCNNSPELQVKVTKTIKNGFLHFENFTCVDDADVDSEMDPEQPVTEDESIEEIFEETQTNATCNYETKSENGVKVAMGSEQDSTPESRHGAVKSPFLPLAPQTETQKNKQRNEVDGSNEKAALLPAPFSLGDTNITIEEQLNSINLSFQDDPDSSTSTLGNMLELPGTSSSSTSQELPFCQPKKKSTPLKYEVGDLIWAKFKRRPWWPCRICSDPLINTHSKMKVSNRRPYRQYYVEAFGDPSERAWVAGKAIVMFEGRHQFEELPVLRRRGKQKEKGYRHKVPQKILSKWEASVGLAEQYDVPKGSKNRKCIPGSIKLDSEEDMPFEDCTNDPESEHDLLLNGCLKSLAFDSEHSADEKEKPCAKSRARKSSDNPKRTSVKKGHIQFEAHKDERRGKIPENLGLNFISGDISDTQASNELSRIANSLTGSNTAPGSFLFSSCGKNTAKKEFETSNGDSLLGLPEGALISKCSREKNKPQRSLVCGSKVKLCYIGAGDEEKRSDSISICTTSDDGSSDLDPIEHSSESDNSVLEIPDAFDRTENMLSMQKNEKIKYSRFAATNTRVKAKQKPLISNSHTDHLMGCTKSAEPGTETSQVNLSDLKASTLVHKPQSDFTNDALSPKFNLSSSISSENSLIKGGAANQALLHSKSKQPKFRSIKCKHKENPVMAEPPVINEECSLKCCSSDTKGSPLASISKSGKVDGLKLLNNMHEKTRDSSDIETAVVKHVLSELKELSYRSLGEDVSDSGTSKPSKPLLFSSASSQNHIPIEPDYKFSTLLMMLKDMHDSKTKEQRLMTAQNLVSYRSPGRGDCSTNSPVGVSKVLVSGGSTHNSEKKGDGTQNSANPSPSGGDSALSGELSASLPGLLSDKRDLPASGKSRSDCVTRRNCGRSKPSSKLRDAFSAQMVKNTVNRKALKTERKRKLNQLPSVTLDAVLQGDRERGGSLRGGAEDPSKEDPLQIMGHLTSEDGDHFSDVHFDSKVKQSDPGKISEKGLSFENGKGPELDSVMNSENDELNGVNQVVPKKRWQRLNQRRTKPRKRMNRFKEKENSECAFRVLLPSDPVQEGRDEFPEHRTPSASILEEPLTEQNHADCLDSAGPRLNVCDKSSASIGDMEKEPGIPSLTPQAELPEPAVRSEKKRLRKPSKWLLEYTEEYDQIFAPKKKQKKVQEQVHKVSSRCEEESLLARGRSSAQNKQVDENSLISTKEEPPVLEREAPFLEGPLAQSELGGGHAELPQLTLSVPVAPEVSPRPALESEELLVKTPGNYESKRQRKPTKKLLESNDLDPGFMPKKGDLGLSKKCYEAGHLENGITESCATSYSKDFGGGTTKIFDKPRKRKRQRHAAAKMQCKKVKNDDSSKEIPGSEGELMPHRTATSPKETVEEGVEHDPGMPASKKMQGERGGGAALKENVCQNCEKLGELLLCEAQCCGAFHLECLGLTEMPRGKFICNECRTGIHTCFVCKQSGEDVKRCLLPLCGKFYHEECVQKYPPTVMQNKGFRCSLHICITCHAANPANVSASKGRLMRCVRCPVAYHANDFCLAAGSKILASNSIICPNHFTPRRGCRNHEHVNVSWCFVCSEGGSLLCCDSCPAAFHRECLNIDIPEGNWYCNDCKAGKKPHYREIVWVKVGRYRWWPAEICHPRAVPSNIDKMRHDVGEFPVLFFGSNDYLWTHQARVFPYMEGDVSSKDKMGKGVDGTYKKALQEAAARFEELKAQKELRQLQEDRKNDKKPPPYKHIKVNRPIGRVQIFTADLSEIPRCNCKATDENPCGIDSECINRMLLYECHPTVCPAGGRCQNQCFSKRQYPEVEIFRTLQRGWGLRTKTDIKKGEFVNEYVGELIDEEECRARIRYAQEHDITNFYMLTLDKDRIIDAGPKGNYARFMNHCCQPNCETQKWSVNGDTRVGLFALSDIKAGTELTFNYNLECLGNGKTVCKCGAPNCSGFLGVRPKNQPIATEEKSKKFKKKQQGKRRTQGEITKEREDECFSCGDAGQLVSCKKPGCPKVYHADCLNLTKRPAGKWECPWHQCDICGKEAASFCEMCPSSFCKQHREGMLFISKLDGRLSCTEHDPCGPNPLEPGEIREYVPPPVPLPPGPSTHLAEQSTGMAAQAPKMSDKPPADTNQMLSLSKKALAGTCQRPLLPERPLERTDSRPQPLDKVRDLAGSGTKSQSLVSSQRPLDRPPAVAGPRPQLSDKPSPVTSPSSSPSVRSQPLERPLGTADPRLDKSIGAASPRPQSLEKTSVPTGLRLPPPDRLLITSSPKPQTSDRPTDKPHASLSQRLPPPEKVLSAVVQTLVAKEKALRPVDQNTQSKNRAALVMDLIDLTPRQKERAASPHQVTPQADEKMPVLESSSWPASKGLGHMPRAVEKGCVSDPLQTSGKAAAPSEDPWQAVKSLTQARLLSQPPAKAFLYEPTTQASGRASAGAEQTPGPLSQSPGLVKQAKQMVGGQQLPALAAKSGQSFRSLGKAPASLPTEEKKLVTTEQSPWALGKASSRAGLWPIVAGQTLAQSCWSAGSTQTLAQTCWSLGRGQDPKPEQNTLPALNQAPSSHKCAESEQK

SMILES: Cc1cc(C)cc([C@H]2c3cc(C)ccc3NC(=O)CN2C(=O)c2ccc(Br)s2)c1
- % of activity [1]: 97.7%

SMILES: CN1Cc2nccc(-c3cn(C)nc3-c3ccc(F)cc3)c2C1=O
- % of inhibition [2]: 3%

SMILES: Cc1ccc(-c2ccc3c(ccc4sc5c(c43)NC[C@@H](C)NC5=O)n2)cn1
- % of inhibition [3]: 8%

SMILES: CC[C@@H]1[C@H](F)C(=O)N[C@@H]1COc1nccc2cc(C(N)=O)c(OC)cc12 [ZIMLOVISERTIB]
- % of inhibition [4]: 16.4%
- % of inhibition [5]: 5.25%

SMILES: COCC(=O)NC/C=C/c1ccc2ncnc(Nc3ccc(Oc4ccc(C)nc4)c(C)c3)c2c1 [CP-724714]
- % of control [6]: 100%
- % of control [7]: 23%

SMILES: COc1cc(Nc2nc(C)cc(-c3cnn4nc(OC)ccc34)n2)cc(C(F)(F)F)c1
- % of control [8]: 100%

SMILES: Cc1cc(CN)cc(C)c1-c1ncn(C)c1-c1cncn1C
- dTM [9]: -2.98 K

SMILES: COc1cc(N(C)c2ccnc3ccc(C(F)(F)F)cc23)cc(OC)c1OC
- % binding [10]: 93%
- % binding [11]: 96%
